Data from ChEMBL document CHEMBL1136494, “Potent anti-metastatic activity of dimeric sesquiterpene thioalkaloids from the rhizome of Nuphar pumilum” (2003).

Experiments:
Format in all cases: functional
Details in all cases: Mus musculus
B16 [1] = assay: Inhibition of invasion of B16 melanoma cells by 100 uM concentration of the compound
B16 [2] = assay: Inhibition of invasion of B16 melanoma cells by 10 uM concentration of the compound
B16 [3] = assay: Inhibition of invasion of B16 melanoma cells by 1 uM concentration of the compound
B16 [4] = assay: Inhibition of invasion of B16 melanoma cells by 0.1 uM concentration of the compound
B16 [5] = assay: Inhibition of lung metastasis of B16 melanoma cells in mice after 20 mg/kg po administration of the compound
B16 [6] = assay: Inhibition of invasion of B16 melanoma cells by 0.01 uM concentration of the compound

SMILES | inhibition at 100 µM (B16 [1]) | inhibition at 10 µM (B16 [2]) | inhibition at 1 µM (B16 [3]) | inhibition at 0.1 µM (B16 [4]) | inhibition in vivo at 20 mg/kg (B16 [5]) | inhibition at 0.01 µM (B16 [6])
C[C@@H]1CC[C@@H](c2ccoc2)N2C[C@@]3(CC[C@@H]12)C[S+]([O-])[C@]1(CC[C@H]2[C@H](C)CC[C@@H](c4ccoc4)N2C1)C3 (stereo partly drawn) | 0% | 9.2% | 10.2% | -8.1% | – | –
C[C@@H]1CC[C@@H](c2ccoc2)N2C[C@@]3(CC[C@@H]12)CS[C@@]1(CC[C@H]2[C@H](C)CC[C@@H](c4ccoc4)N2[C@@H]1O)C3 | 86.8% | 84.8% | 66.5% | 57.5% | 94% | 50.9%
C[C@H]1CC[C@H]2[C@H](C)CC[C@@H](c3ccoc3)N2C1 | 19.1% | 28.5% | 14% | -5.1% | – | –
C[C@@H]1CC[C@@H](c2ccoc2)N2[C@H]1CC[C@@]1(CS[C@@]3(CC[C@H]4[C@H](C)CC[C@@H](c5ccoc5)N4[C@@H]3O)C1)[C@H]2O | 86.6% | 83.2% | 68.5% | 43.1% | – | 40.3%
C[C@@H]1CC[C@@H](c2ccoc2)N2C[C@]3(CC[C@@H]12)C[S+]([O-])[C@]1(CC[C@H]2[C@H](C)CC[C@@H](c4ccoc4)N2C1)C3 (stereo partly drawn) | 15.7% | 12.8% | 18.5% | 10.6% | – | –
C[C@H]1CC[C@H]2[C@H](C)CC[C@@H](c3ccoc3)[N@@+]2([O-])C1 | 47.2% | 41.4% | 34.7% | 19.6% | – | –
C[C@@H]1CC[C@@H](c2ccoc2)N2C[C@@]3(CC[C@@H]12)C[S+]([O-])[C@@]1(CC[C@H]2[C@H](C)CC[C@@H](c4ccoc4)N2C1)C3 (stereo partly drawn) | 32.5% | 42.2% | 38.3% | 16.9% | – | –
C[C@@H]1CC[C@@H](c2ccoc2)N2C[C@@]3(CC[C@@H]12)CS[C@]1(CC[C@H]2[C@H](C)CC[C@@H](c4ccoc4)N2[C@@H]1O)C3 [6-HYDROXYTHIONUPHLUTINE B] | 47.1% | 61.4% | 62.7% | 31.6% | – | 5.9%
C[C@@H]1CC[C@H]2[C@H](C)CC[C@@H](c3ccoc3)N2C1 [(-)-7-EPI-DEOXYNUPHARIDINE] | 23% | 20.9% | 25.3% | 5.1% | – | –
COc1cc(C=CC(=O)CC(=O)/C=C/c2ccc(O)c(OC)c2)ccc1O [CURCUMIN] | – | – | – | – | 87% | –
C[C@@H]1CC[C@@H](c2ccoc2)N2C[C@]3(CC[C@@H]12)CS[C@]1(CC[C@H]2[C@H](C)CC[C@@H](c4ccoc4)N2C1)C3 [NEOTHIOBINUPHARIDINE] | 28.3% | 33.2% | 18.9% | 11.9% | – | –
C[C@@H]1CC[C@@H](c2ccoc2)N2C[C@](C)(O)CC[C@@H]12 [NUPHAROLUTINE] | -0.6% | 16.8% | 1.7% | 25.5% | – | –
C[C@@H]1CC[C@@H](c2ccoc2)N2C[C@@]3(CC[C@@H]12)CS[C@@]1(CC[C@H]2[C@H](C)CC[C@@H](c4ccoc4)N2C1)C3 [THIOBINUPHARIDINE] | 22.7% | 15.6% | 9.7% | 5.2% | – | –
